Results published in patent US12692248B2, “Solid state forms of (S)-N-(3-(2-(((R)-1-hydroxypropan-2-yl)amino)-6-morpholinopyridin-4-yl)-4-methylphenyl)-3-(2,2,2-trifluoroethyl)pyrrolidine-1-carboxamide and salts thereof” (PIERRE FABRE MEDICAMENT, priority 2021, dated 2026).
Where two headings read alike, the source gives them in different places.

Key:
Type in all cases: physicochemical
[1] = Comparison dissolution trials in water and biorelevant media; settings: for solubility at 0.5 h: read-out: Solubility (mg/mL) 0.5 h; for solubility at 2 h: read-out: Solubility (mg/mL) 2 h; for solubility at 24 h: read-out: Solubility (mg/mL) 24 h
Procedure: Comparison dissolution trials were performed on Compounds 1 and 2. About 20 mg of each sample was weighed into a sample vial and then 4 mL of media was added to make a suspension. All suspensions were shaken at 37° C. with a rate of 200 rpm. […] He pH of the filtrate was measured, and the filter cake was analyzed by XRPD. […] In biorelevant dissolution media FaSSIF and FeSSIF, the solubility of the Compound 1 and Compound 2 were similar.

[2] = Stability at 60° C. and 40° C. at 75% relative humidity for 9 days (UPLC purity, XRPD); settings: UPLC; for Purity −3 d: 3 days; for Purity −9 d: 9 days
Procedure: Compound 1 and Compound 2 were evaluated for stability at 60° C. and 40° C. at 75% relative humidity for 9 days. At 0, 3, and 9 days, the samples were dissolved with diluent to prepare a solution for purity analysis by UPLC. Solid samples were also analyzed by XRPD to check the crystal form.

[3] = Stability of Compound 2 in 0.5% MC/0.1% Tween 80 at 10 mg/mL; settings: suspension 10 mg/mL in 0.5% MC/0.1% Tween 80, RT, 7 days
Procedure: A solution of Compound 2 was evaluated for stability in 0.5% MC/0.1% Tween 80 at 10 mg/mL. 10.7 mg of Compound 2 was weighed into a sample vial, and then 500 μL of 1% MC and 500 μL of 0.2% Tween 80 were added to obtain a suspension at 10 mg/mL (calculated as the free base). The mixture was kept stirring for 15 min at RT and the suspension was placed at RT for 7 days.

[4] = Dynamic Vapor Sorption (DVS); settings: DVS
Procedure: Dynamic Vapor Sorption (DVS) Moisture sorption/desorption data was collected on a DVS Intrinsic PLUS (SMS, UK). The sample was placed into a tared sample chamber and automatically weighed. The sample was dried at 40° C./0%0 RH until the dm/dt was less than 0.00200 and cooled to 25° C. [table]

[5] = Thermodynamic solubility in 13 solvents at RT and 50° C. by UPLC; settings: for solubility: thermodynamic from solid; for XRPD at 1 d / XRPD at 4 d: residual solid
Procedure: Thermodynamic solubility of Compound 2 was measured in 13 solvents at RT and 50° C. by UPLC, respectively. […] In most of other selected solvents, the compound was almost insoluble (<0.5 mg/mL) except in EtOH and water where it was slightly soluble (6-9 mg/mL).

[6] = simulated gastric fluid, thermodynamic from solid, SGF, 37° C.
[7] = thermodynamic from solid, FaSSIF, 37° C.
[8] = thermodynamic from solid, FeSSIF, 37° C.
[9] = thermodynamic from solid, Water, 37° C.

SMILES: Cc1ccc(NC(=O)N2CC[C@@H](CC(F)(F)F)C2)cc1-c1cc(N[C@H](C)CO)nc(N2CCOCC2)c1.Cl [Compound 2, (S)—N-(3-(2-(((R)-1-hydroxypropan-2-yl)amino)-6-morpholinopyridin-4-yl)-4-methylphenyl)-3-(2,2,2-trifluoroethyl)pyrrolidine-1-carboxamide hydrochloride]
- solubility of Compound 1 and Compound 2 compared ([1]; FaSSIF and FeSSIF): similar
- pH of the filtrate ([1]; Water medium): (pH 3.1)
- solubility at 0.5 h [1, 6]: 0.2 mg/mL
- solubility at 2 h [1, 6]: 0.27 mg/mL
- solubility at 24 h [1, 6]: 0.39 mg/mL
- solubility at 0.5 h [1, 7]: 0.024 mg/mL
- solubility at 2 h [1, 7]: 0.021 mg/mL
- solubility at 24 h [1, 7]: 0.027 mg/mL
- solubility at 0.5 h [1, 8]: 0.21 mg/mL
- solubility at 2 h [1, 8]: 0.2 mg/mL
- solubility at 24 h [1, 8]: 0.23 mg/mL
- solubility at 0.5 h [1, 9]: 1.42 mg/mL
- solubility at 2 h [1, 9]: 1.36 mg/mL
- solubility at 24 h [1, 9]: 2.49 mg/mL
- solubility ([1]; thermodynamic from solid, water, 37° C.): ~2500 µg/mL
- Purity −0 d (Area %) ([2]; 0 days (initial)): 99.77 Area %
- Purity −3 d ([2]; 40° C./75% RH): 99.74 Area %
- Purity −9 d ([2]; 40° C./75% RH): 99.76 Area %
- Purity −3 d ([2]; 60° C.): 99.73 Area %
- Purity −9 d ([2]; 60° C.): 99.74 Area %
- form change [3]: No form change
- purity decrease ([3]; UPLC): 0.13%
- hygroscopicity [4]: slightly hydroscopic
- water uptake at 80% RH ([4]; 25° C., 80% relative humidity): 0.66%
- water uptake at 90% relative humidity ([4]; 25° C., 90% relative humidity): 0.95%
- solubility ([5]; ACN, 50 °C, organic solvent or mixture, ACN, 50° C., read-out: Solubility at 50° C.(mg/mL)): 0.92 mg/mL
- solubility ([5]; ACN, organic solvent or mixture, ACN, RT, read-out: Solubility at RT): 0.01 mg/mL
- solubility ([5]; EA, 50 °C, organic solvent or mixture, EA, 50° C., read-out: Solubility at 50° C.(mg/mL)): 0.09 mg/mL
- solubility ([5]; EA, organic solvent or mixture, EA, RT, read-out: Solubility at RT): 0.06 mg/mL
- solubility ([5]; EtOH and water, water, EtOH and water (slightly soluble), read-out: solubility): 6 to 9 mg/mL
- solubility ([5]; EtOH, 50 °C, organic solvent or mixture, EtOH, 50° C., read-out: Solubility at 50° C.(mg/mL)): 8.82 mg/mL
- solubility ([5]; EtOH, organic solvent or mixture, EtOH, RT, read-out: Solubility at RT): 7.15 mg/mL
- solubility ([5]; Hept, 50 °C, organic solvent or mixture, Hept, 50° C., read-out: Solubility at 50° C.(mg/mL)): 0.01 mg/mL
- solubility ([5]; Hept, organic solvent or mixture, Hept, RT, read-out: Solubility at RT): 0.01 mg/mL
- solubility ([5]; IPA, 50 °C, organic solvent or mixture, IPA, 50° C., read-out: Solubility at 50° C.(mg/mL)): 2.8 mg/mL
- solubility ([5]; IPA, organic solvent or mixture, IPA, RT, read-out: Solubility at RT): 1.69 mg/mL
- solubility ([5]; IPAC, 50 °C, organic solvent or mixture, IPAC, 50° C., read-out: Solubility at 50° C.(mg/mL)): 0.03 mg/mL
- solubility ([5]; IPAC, organic solvent or mixture, IPAC, RT, read-out: Solubility at RT): 0.02 mg/mL
- solubility ([5]; MEK, 50 °C, organic solvent or mixture, MEK, 50° C., read-out: Solubility at 50° C.(mg/mL)): 0.28 mg/mL
- solubility ([5]; MEK, organic solvent or mixture, MEK, RT, read-out: Solubility at RT): 0.01 mg/mL
- solubility ([5]; MIBK, 50 °C, organic solvent or mixture, MIBK, 50° C., read-out: Solubility at 50° C.(mg/mL)): 0.11 mg/mL
- solubility ([5]; MIBK, organic solvent or mixture, MIBK, RT, read-out: Solubility at RT): 0.05 mg/mL
- solubility ([5]; MTBE, 50 °C, organic solvent or mixture, MTBE, 50° C., read-out: Solubility at 50° C.(mg/mL)): 0.01 mg/mL
- solubility ([5]; MTBE, organic solvent or mixture, MTBE, RT, read-out: Solubility at RT): 0.02 mg/mL
- solubility ([5]; MeOH, 50 °C, organic solvent or mixture, MeOH, 50° C., read-out: Solubility at 50° C.(mg/mL)): ~102 mg/mL
- Solubility at RT ([5]; MeOH, RT, hydrochloride): 54670 µg/mL
- solubility ([5]; MeOH, organic solvent or mixture, MeOH, RT, read-out: Solubility at RT): ~55 mg/mL
- solubility ([5]; acetone, 50 °C, organic solvent or mixture, Acetone, 50° C., read-out: Solubility at 50° C.(mg/mL)): 0.45 mg/mL
- solubility ([5]; acetone, organic solvent or mixture, Acetone, RT, read-out: Solubility at RT): 0.65 mg/mL
- solubility ([5]; cyclohexane, 50 °C, organic solvent or mixture, Cyclohexane, 50° C., read-out: Solubility at 50° C.(mg/mL)): 0.05 mg/mL
- solubility ([5]; cyclohexane, organic solvent or mixture, Cyclohexane, RT, read-out: Solubility at RT): 0.01 mg/mL
- solubility ([5]; organic solvent or mixture, most of other selected solvents (almost insoluble), read-out: solubility): < 0.5 mg/mL
- XRPD at 1 d ([5]; ACN, 50° C.): Form I
- XRPD at 4 d ([5]; ACN, RT): Form I
- XRPD at 1 d ([5]; Acetone, 50° C.): Form I
- XRPD at 4 d ([5]; Acetone, RT): Form I
- XRPD at 1 d ([5]; Cyclohexane, 50° C.): Form I
- XRPD at 4 d ([5]; Cyclohexane, RT): Form I
- XRPD at 1 d ([5]; EA, 50° C.): Form I
- XRPD at 4 d ([5]; EA, RT): Form I
- XRPD at 1 d ([5]; EtOH, 50° C.): Form I
- XRPD at 4 d ([5]; EtOH, RT): Form I
- XRPD at 1 d ([5]; Hept, 50° C.): Form I
- XRPD at 4 d ([5]; Hept, RT): Form I
- XRPD at 1 d ([5]; IPA, 50° C.): Form I
- XRPD at 4 d ([5]; IPA, RT): Form I
- XRPD at 1 d ([5]; IPAC, 50° C.): Form I
- XRPD at 4 d ([5]; IPAC, RT): Form I
- XRPD at 1 d ([5]; MEK, 50° C.): Form I
- XRPD at 4 d ([5]; MEK, RT): Form I
- XRPD at 1 d ([5]; MIBK, 50° C.): Form I
- XRPD at 4 d ([5]; MIBK, RT): Form I
- XRPD at 1 d ([5]; MTBE, 50° C.): Form I
- XRPD at 4 d ([5]; MTBE, RT): Form I
- XRPD at 1 d ([5]; MeOH, 50° C.): Form I
- XRPD at 4 d ([5]; MeOH, RT): Form I
- XRPD at 1 d ([5]; Water, 50° C.): Form I
- XRPD at 4 d ([5]; Water, RT): Form I
- form change during the solubility testing ([5]; residual solids by XRPD): no form change
- solubility ([5]; water, 50 °C, water, Water, 50° C., read-out: Solubility at 50° C.(mg/mL)): 6.73 mg/mL
- solubility ([5]; water, Water, RT, read-out: Solubility at RT): 6.15 mg/mL
